Assay results: PubChem BioAssay AID1745844 (Carcinogenic Potency Database (CPDB), 2022)
Activity calls are given as the source filed them. No rule for the calls is given here.

Test system: rodent lifetime carcinogenesis bioassay, tumor incidence TD50
Assay: carcinogenic potency in animals, long-term in vivo studies, CPDB compilation (AID 1745844)

How did the TD50 (mouse, strain CDF1, females, in feed, site: blood vessels, lesion: hemangioendothelial sarcoma, dosed 67 weeks, study length 67 weeks) turn out when `Cc1cccn2c1nc1ccc(N)nc12` was run?
The TD50 was 13.8 mg/kg/day.

And the TD50 (mouse, strain CDF1, females, in feed, site: blood vessels, lesion: several types, types named in the paper, dosed 67 weeks, study length 67 weeks)?
Its TD50 is 10.9 mg/kg/day.

What about the TD50 (mouse, strain CDF1, females, in feed, site: liver, lesion: hepatocellular adenoma, dosed 67 weeks, study length 67 weeks) of the same compound?
The TD50 was 44.1 mg/kg/day.

And the TD50 (mouse, strain CDF1, females, in feed, site: liver, lesion: hepatocellular carcinoma, dosed 67 weeks, study length 67 weeks)?
Its TD50 is 18.5 mg/kg/day.

And the TD50 (mouse, strain CDF1, females, in feed, site: liver, lesion: several types, types named in the paper, dosed 67 weeks, study length 67 weeks)?
Its TD50 is 5.08 mg/kg/day.

What about the TD50 (mouse, strain CDF1, females, in feed, site: lung, lesion: adenoma, dosed 67 weeks, study length 67 weeks) of the same compound?
Its TD50 is 166 mg/kg/day.

What about the TD50 (mouse, strain CDF1, females, in feed, site: lung, lesion: several types, types named in the paper, dosed 67 weeks, study length 67 weeks) of the same compound?
The TD50 was 308 mg/kg/day.

And the TD50 (mouse, strain CDF1, males, in feed, site: blood vessels, lesion: hemangioendothelial sarcoma, dosed 57 weeks, study length 57 weeks)?
The TD50 was 7.81 mg/kg/day.

What about the TD50 (mouse, strain CDF1, males, in feed, site: blood vessels, lesion: hemangioendothelioma, dosed 57 weeks, study length 57 weeks) of the same compound?
The TD50 was 98.7 mg/kg/day.

And the TD50 (mouse, strain CDF1, males, in feed, site: blood vessels, lesion: several types, types named in the paper, dosed 57 weeks, study length 57 weeks)?
Its TD50 is 5.77 mg/kg/day.

And the TD50 (mouse, strain CDF1, males, in feed, site: liver, lesion: hepatocellular adenoma, dosed 57 weeks, study length 57 weeks)?
The TD50 was 98.7 mg/kg/day.

What about the TD50 (mouse, strain CDF1, males, in feed, site: lung, lesion: adenoma, dosed 57 weeks, study length 57 weeks) of the same compound?
The TD50 was 1000 mg/kg/day.

And the TD50 (rat, strain F344/DuCrj, females, in feed, site: Zymbal's gland, lesion: squamous-cell carcinoma, dosed 67 weeks, study length 67 weeks)?
The TD50 was 12.7 mg/kg/day.

And the TD50 (rat, strain F344/DuCrj, females, in feed, site: brain, lesion: astrocytoma, dosed 67 weeks, study length 67 weeks)?
The TD50 was 95.9 mg/kg/day.

What about the TD50 (rat, strain F344/DuCrj, females, in feed, site: clitoral gland, lesion: one or several types, types not named, dosed 67 weeks, study length 67 weeks) of the same compound?
Its TD50 is 56.1 mg/kg/day.

And the TD50 (rat, strain F344/DuCrj, females, in feed, site: colon, lesion: adenocarcinoma, dosed 67 weeks, study length 67 weeks)?
Its TD50 is 95.9 mg/kg/day.

And the TD50 (rat, strain F344/DuCrj, females, in feed, site: colon, lesion: adenoma, dosed 67 weeks, study length 67 weeks)?
Its TD50 is 71 mg/kg/day.

What about the TD50 (rat, strain F344/DuCrj, females, in feed, site: colon, lesion: several types, types named in the paper, dosed 67 weeks, study length 67 weeks) of the same compound?
Its TD50 is 39 mg/kg/day.

What about the TD50 (rat, strain F344/DuCrj, females, in feed, site: liver, lesion: several types, types named in the paper, dosed 67 weeks, study length 67 weeks) of the same compound?
Its TD50 is 8.39 mg/kg/day.

What about the TD50 (rat, strain F344/DuCrj, females, in feed, site: small intestine, lesion: adenocarcinoma, dosed 67 weeks, study length 67 weeks) of the same compound?
Its TD50 is 56.1 mg/kg/day.

And the TD50 (rat, strain F344/DuCrj, females, in feed, site: small intestine, lesion: adenoma, dosed 67 weeks, study length 67 weeks)?
The TD50 was 146 mg/kg/day.

And the TD50 (rat, strain F344/DuCrj, females, in feed, site: small intestine, lesion: mucinous carcinoma, dosed 67 weeks, study length 67 weeks)?
Its TD50 is 71 mg/kg/day.

And the TD50 (rat, strain F344/DuCrj, females, in feed, site: small intestine, lesion: several types, types named in the paper, dosed 67 weeks, study length 67 weeks)?
Its TD50 is 26.1 mg/kg/day.

And the TD50 (rat, strain F344/DuCrj, males, in feed, site: Zymbal's gland, lesion: squamous-cell carcinoma, dosed 67 weeks, study length 67 weeks)?
The TD50 was 10.2 mg/kg/day.

What about the TD50 (rat, strain F344/DuCrj, males, in feed, site: colon, lesion: adenocarcinoma, dosed 67 weeks, study length 67 weeks) of the same compound?
Its TD50 is 16.9 mg/kg/day.

And the TD50 (rat, strain F344/DuCrj, males, in feed, site: colon, lesion: adenoma, dosed 67 weeks, study length 67 weeks)?
The TD50 was 15.4 mg/kg/day.

And the TD50 (rat, strain F344/DuCrj, males, in feed, site: colon, lesion: several types, types named in the paper, dosed 67 weeks, study length 67 weeks)?
The TD50 was 9.45 mg/kg/day.

What about the TD50 (rat, strain F344/DuCrj, males, in feed, site: liver, lesion: several types, types named in the paper, dosed 67 weeks, study length 67 weeks) of the same compound?
Its TD50 is 3.25 mg/kg/day.

What about the TD50 (rat, strain F344/DuCrj, males, in feed, site: small intestine, lesion: adenocarcinoma, dosed 67 weeks, study length 67 weeks) of the same compound?
The TD50 was 6.71 mg/kg/day.

What about the TD50 (rat, strain F344/DuCrj, males, in feed, site: small intestine, lesion: adenoma, dosed 67 weeks, study length 67 weeks) of the same compound?
Its TD50 is 8.21 mg/kg/day.

What about the TD50 (rat, strain F344/DuCrj, males, in feed, site: small intestine, lesion: mucinous carcinoma, dosed 67 weeks, study length 67 weeks) of the same compound?
The TD50 was 236 mg/kg/day.

What about the TD50 (rat, strain F344/DuCrj, males, in feed, site: small intestine, lesion: several types, types named in the paper, dosed 67 weeks, study length 67 weeks) of the same compound?
Its TD50 is 5.89 mg/kg/day.

Which carcinogen call (mouse, strain ASH-CS1, females, in feed, site: any site (literature study), lesion: several types, types named in the paper, dosed 80 weeks, study length 84 weeks) does the source give for `NC1CCCCC1` here?
Its carcinogen call is “negative (inactive)”.

What about the carcinogen call (mouse, strain ASH-CS1, females, in feed, site: liver, lesion: nodular hyperplasia, dosed 80 weeks, study length 84 weeks) of the same compound?
The carcinogen call was “negative (inactive)”.

What about the carcinogen call (mouse, strain ASH-CS1, females, in feed, site: lung, lesion: adenoma, dosed 80 weeks, study length 84 weeks) of the same compound?
The carcinogen call was “negative (inactive)”.

And the carcinogen call (mouse, strain ASH-CS1, males, in feed, site: any site (literature study), lesion: several types, types named in the paper, dosed 80 weeks, study length 84 weeks)?
The carcinogen call was “negative (inactive)”.

What about the TD50 (mouse, strain ASH-CS1, males, in feed, site: liver, lesion: nodular hyperplasia, dosed 80 weeks, study length 84 weeks) of the same compound?
Its TD50 is 231 mg/kg/day (inactive).

What about the carcinogen call (mouse, strain ASH-CS1, males, in feed, site: lung, lesion: adenocarcinoma, dosed 80 weeks, study length 84 weeks) of the same compound?
The carcinogen call was “negative (inactive)”.

What about the carcinogen call (mouse, strain ASH-CS1, males, in feed, site: lung, lesion: adenoma, dosed 80 weeks, study length 84 weeks) of the same compound?
The carcinogen call was “negative (inactive)”.

And the carcinogen call (mouse, strain Swiss, females, in feed, site: urinary bladder, lesion: anaplastic carcinoma, dosed 91 weeks, study length 91 weeks)?
The carcinogen call was “negative (inactive)”.

What about the carcinogen call (mouse, strain Swiss, males, in feed, site: urinary bladder, lesion: one or several types, types not named, dosed 91 weeks, study length 91 weeks) of the same compound?
The carcinogen call was “negative (inactive)”.

What about the TD50 (rat, strain Charles River albino, males, in feed, site: urinary bladder, lesion: transitional-cell carcinoma, dosed 104 weeks, study length 104 weeks) of the same compound?
The TD50 was 280 mg/kg/day.

What about the carcinogen call (rat, strain FDRL, both sexes, in feed, site: any site (literature study), lesion: several types, types named in the paper, dosed 104 weeks, study length 104 weeks) of the same compound?
Its carcinogen call is “negative (inactive)”.

And the carcinogen call (rat, strain Sprague-Dawley, both sexes, in feed, site: any site (literature study), lesion: malignant tumor, dosed 130 weeks, study length 130 weeks)?
The carcinogen call was “negative (inactive)”.

And the TD50 (rat, strain Sprague-Dawley, both sexes, in feed, site: liver, lesion: liver-cell adenoma, dosed 130 weeks, study length 130 weeks)?
The TD50 was 14500 mg/kg/day (inactive).

What about the carcinogen call (rat, strain Sprague-Dawley, both sexes, in feed, site: urinary bladder, lesion: one or several types, types not named, dosed 130 weeks, study length 130 weeks) of the same compound?
Its carcinogen call is “negative (inactive)”.

What about the TD50 (rat, strain Wistar, females, in feed, site: liver, lesion: hemangioma, dosed 104 weeks, study length 104 weeks) of the same compound?
The TD50 was 1330 mg/kg/day (inactive).

What about the carcinogen call (rat, strain Wistar, males, in feed, site: liver, lesion: hemangioma, dosed 104 weeks, study length 104 weeks) of the same compound?
Its carcinogen call is “negative (inactive)”.

And the TD50 (rat, strain Wistar, males, in feed, site: liver, lesion: nodular hyperplasia, dosed 104 weeks, study length 104 weeks)?
The TD50 was 47000 mg/kg/day (inactive).

`CN(C)/C=N/c1nnc(/C=C/c2ccc([N+](=O)[O-])o2)o1` was tested. Which TD50 (rat, strain Sprague-Dawley, females, in feed, site: any site (literature study), lesion: several types, types named in the paper, dosed 46 weeks, study length 66 weeks) did it give?
The TD50 was 20.6 mg/kg/day.

What about the TD50 (rat, strain Sprague-Dawley, females, in feed, site: duodenum, lesion: adenocarcinoma, dosed 46 weeks, study length 66 weeks) of the same compound?
The TD50 was 336 mg/kg/day.

And the TD50 (rat, strain Sprague-Dawley, females, in feed, site: duodenum, lesion: adenomatous polyp, dosed 46 weeks, study length 66 weeks)?
Its TD50 is 336 mg/kg/day.

And the TD50 (rat, strain Sprague-Dawley, females, in feed, site: forestomach, lesion: squamous-cell papilloma, dosed 46 weeks, study length 66 weeks)?
Its TD50 is 221 mg/kg/day.

And the TD50 (rat, strain Sprague-Dawley, females, in feed, site: lung, lesion: alveolar-cell carcinoma, dosed 46 weeks, study length 66 weeks)?
Its TD50 is 683 mg/kg/day.

What about the TD50 (rat, strain Sprague-Dawley, females, in feed, site: mammary gland, lesion: adenocarcinoma, dosed 46 weeks, study length 66 weeks) of the same compound?
The TD50 was 20.4 mg/kg/day.

And the TD50 (rat, strain Sprague-Dawley, females, in feed, site: mammary gland, lesion: several types, types named in the paper, dosed 46 weeks, study length 66 weeks)?
Its TD50 is 22.4 mg/kg/day.

`CCCCCCCC(=O)OCC(COC(=O)CCCCCCC)OC(=O)CCCCCCC` was tested. Which TD50 (rat, strain Fischer 344, males, by gavage, site: any site (literature study), lesion: several types, types named in the paper, dosed 104 weeks, study length 104 weeks) did it give?
Its TD50 is 69900 mg/kg/day.

And the TD50 (rat, strain Fischer 344, males, by gavage, site: forestomach, lesion: squamous-cell papilloma, dosed 104 weeks, study length 104 weeks)?
Its TD50 is 15700 mg/kg/day.

And the TD50 (rat, strain Fischer 344, males, by gavage, site: liver, lesion: hepatocellular adenoma + hepatoblastoma + hepatocellular carcinoma, dosed 104 weeks, study length 104 weeks)?
The TD50 was 37100 mg/kg/day.

And the TD50 (rat, strain Fischer 344, males, by gavage, site: liver, lesion: hepatocellular adenoma, dosed 104 weeks, study length 104 weeks)?
Its TD50 is 37100 mg/kg/day.

What about the TD50 (rat, strain Fischer 344, males, by gavage, site: pancreas, lesion: acinar-cell adenoma, dosed 104 weeks, study length 104 weeks) of the same compound?
The TD50 was 5490 mg/kg/day (inactive).

With `C=COC(N)=O` as the compound, how does the TD50 (mouse, strain C57BL/10J, females, i.p., site: liver, lesion: hemangioma, dosed 35 weeks, study length 59 weeks) read?
The TD50 was 0.147 mg/kg/day.

And the TD50 (mouse, strain C57BL/10J, females, i.p., site: liver, lesion: hemangiosarcoma, dosed 35 weeks, study length 59 weeks)?
Its TD50 is 0.138 mg/kg/day.

And the TD50 (mouse, strain C57BL/10J, females, i.p., site: liver, lesion: hepatocellular adenoma, dosed 35 weeks, study length 59 weeks)?
The TD50 was 4.99 mg/kg/day.

What about the TD50 (mouse, strain C57BL/10J, females, i.p., site: liver, lesion: hepatocellular carcinoma, dosed 35 weeks, study length 59 weeks) of the same compound?
Its TD50 is 0.503 mg/kg/day.

What about the TD50 (mouse, strain C57BL/10J, males, i.p., site: liver, lesion: hemangioma, dosed 35 weeks, study length 59 weeks) of the same compound?
The TD50 was 0.112 mg/kg/day.

What about the TD50 (mouse, strain C57BL/10J, males, i.p., site: liver, lesion: hemangiosarcoma, dosed 35 weeks, study length 59 weeks) of the same compound?
The TD50 was 0.118 mg/kg/day.

And the TD50 (mouse, strain C57BL/10J, males, i.p., site: liver, lesion: hepatocellular adenoma, dosed 35 weeks, study length 59 weeks)?
The TD50 was 2.69 mg/kg/day.

And the TD50 (mouse, strain C57BL/10J, males, i.p., site: liver, lesion: hepatocellular carcinoma, dosed 35 weeks, study length 59 weeks)?
The TD50 was 0.629 mg/kg/day.

Which TD50 (rat, strain Wistar, both sexes, in feed, site: several sites, sites named in the paper, lesion: several types, types named in the paper, dosed 78 weeks, study length 78 weeks) does the source give for `COC(=O)[C@H]1[C@H]2C[C@@H]3c4[nH]c5ccccc5c4CCN3C[C@H]2C[C@@H](OC(=O)c2cc(OC)c(OC)c(OC)c2)[C@@H]1OC` here?
The TD50 was 1.28 mg/kg/day (inactive).
